In ChEMBL document CHEMBL1759870, “Identification, structural properties and chelating capacity of miltipolone as a broad-spectrum inhibitor to cancer cells” (Eur J Med Chem, 2011):

Tests used:
Type in all cases: functional, cell-based
[1] = test system: HT-1080; experiment: Antiproliferative activity against human HT1080 cells after 96 hrs by MTT assay; settings: HT-1080, 96 h
[2] = test system: Bel-7402; experiment: Antiproliferative activity against human Bel7402 cells after 96 hrs by MTT assay; settings: Bel-7402, 96 h
[3] = test system: HeLa; experiment: Antiproliferative activity against human HeLa cells after 96 hrs by MTT assay
[4] = test system: PANC-1; experiment: Antiproliferative activity against human PANC1 cells after 96 hrs by MTT assay; settings: PANC-1, 96 h
[5] = test system: NCI-N87; experiment: Antiproliferative activity against human NCI-N87 cells after 96 hrs by MTT assay; settings: NCI-N87, 96 h
[6] = test system: A-375; experiment: Antiproliferative activity against human A375 cells after 96 hrs by MTT assay; settings: A-375, 96 h

SMILES: CC(=O)O[C@H]1C(=O)[C@@]2(C)[C@H]([C@H](OC(=O)c3ccccc3)[C@]3(O)C[C@H](OC(=O)[C@H](O)[C@@H](NC(=O)c4ccccc4)c4ccccc4)C(C)=C1C3(C)C)[C@]1(OC(C)=O)CO[C@@H]1C[C@@H]2O [PACLITAXEL]
- IC50 [1]: 0.0012 µM
- IC50 [2]: 0.578 µM
- IC50 [3]: 0.1 µM
- IC50 [4]: 0.384 µM
- IC50 [5]: 0.0059 µM
- IC50 [6]: 0.0046 µM
